Source: the supplement of paper PMC10307832

What was measured:
Assay in all cases: relative viability (nuclei count vs DMSO), 5 days (fraction); higher = more cells survive
Seliciclib + Lapatinib = compound: CC[C@H](CO)Nc1nc(NCc2ccccc2)c2ncn(C(C)C)c2n1 [Seliciclib] + CS(=O)(=O)CCNCc1ccc(-c2ccc3ncnc(Nc4ccc(OCc5cccc(F)c5)c(Cl)c4)c3c2)o1 [Lapatinib] (partner 2 µM)
Outline: (§1)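 Relative viability equals treated-well nuclei counts divided by vehicle-well nuclei counts. Counts came from 4× images of lung cancer cell lines grown in 1536-well plates for 5 days after pin-tool dosing on the day after seeding. Dosing used one drug alone or a fixed anchor-drug dose plus five library-drug doses (not always all listed) in √10 steps, and values are medians of duplicate plates.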

Seliciclib + Crizotinib = compound: CC[C@H](CO)Nc1nc(NCc2ccccc2)c2ncn(C(C)C)c2n1 [Seliciclib] + C[C@@H](Oc1cc(-c2cnn(C3CCNCC3)c2)cnc1N)c1c(Cl)ccc(F)c1Cl [Crizotinib] (partner 1 µM)
Outline: as §1

Seliciclib + Tozasertib = compound: CC[C@H](CO)Nc1nc(NCc2ccccc2)c2ncn(C(C)C)c2n1 [Seliciclib] + Cc1cc(Nc2cc(N3CCN(C)CC3)nc(Sc3ccc(NC(=O)C4CC4)cc3)n2)n[nH]1 [Tozasertib] (partner 0.1 µM)
Outline: as §1

Seliciclib + Decitabine = compound: CC[C@H](CO)Nc1nc(NCc2ccccc2)c2ncn(C(C)C)c2n1 [Seliciclib] + Nc1ncn([C@H]2C[C@H](O)[C@@H](CO)O2)c(=O)n1 [Decitabine] (partner 2 µM)
Outline: as §1

NCI-H1755
relative viability (Seliciclib + Lapatinib; first compound 0.08 µM): 1.02
relative viability (Seliciclib + Lapatinib; first compound 0.253 µM): 1.02
relative viability (Seliciclib + Lapatinib; first compound 0.8 µM): 1.02
relative viability (Seliciclib + Lapatinib; first compound 2.53 µM): 0.963
relative viability (Seliciclib + Lapatinib; first compound 8 µM): 1.03
relative viability (Seliciclib + Crizotinib; first compound 0.08 µM): 0.84
relative viability (Seliciclib + Crizotinib; first compound 0.253 µM): 0.85
relative viability (Seliciclib + Crizotinib; first compound 0.8 µM): 0.84
relative viability (Seliciclib + Crizotinib; first compound 2.53 µM): 0.973
relative viability (Seliciclib + Crizotinib; first compound 8 µM): 0.854
relative viability (Seliciclib + Tozasertib; first compound 0.08 µM): 0.617
relative viability (Seliciclib + Tozasertib; first compound 0.253 µM): 0.605
relative viability (Seliciclib + Tozasertib; first compound 0.8 µM): 0.62
relative viability (Seliciclib + Tozasertib; first compound 2.53 µM): 0.502
relative viability (Seliciclib + Tozasertib; first compound 8 µM): 0.534
relative viability (Seliciclib + Decitabine; first compound 0.08 µM): 0.71
relative viability (Seliciclib + Decitabine; first compound 0.253 µM): 0.644
relative viability (Seliciclib + Decitabine; first compound 0.8 µM): 0.719
relative viability (Seliciclib + Decitabine; first compound 2.53 µM): 0.759
relative viability (Seliciclib + Decitabine; first compound 8 µM): 0.721

NCI-H1915
relative viability (Seliciclib + Lapatinib; first compound 0.08 µM): 0.951
relative viability (Seliciclib + Lapatinib; first compound 0.253 µM): 1.13
relative viability (Seliciclib + Lapatinib; first compound 0.8 µM): 1.02
relative viability (Seliciclib + Lapatinib; first compound 2.53 µM): 0.936
relative viability (Seliciclib + Lapatinib; first compound 8 µM): 0.853
relative viability (Seliciclib + Crizotinib; first compound 0.08 µM): 0.922
relative viability (Seliciclib + Crizotinib; first compound 0.253 µM): 0.964
relative viability (Seliciclib + Crizotinib; first compound 0.8 µM): 0.88
relative viability (Seliciclib + Crizotinib; first compound 2.53 µM): 0.816
relative viability (Seliciclib + Crizotinib; first compound 8 µM): 0.757
relative viability (Seliciclib + Tozasertib; first compound 0.08 µM): 0.486
relative viability (Seliciclib + Tozasertib; first compound 0.253 µM): 0.437
relative viability (Seliciclib + Tozasertib; first compound 0.8 µM): 0.43
relative viability (Seliciclib + Tozasertib; first compound 2.53 µM): 0.444
relative viability (Seliciclib + Tozasertib; first compound 8 µM): 0.315
relative viability (Seliciclib + Decitabine; first compound 0.08 µM): 0.252
relative viability (Seliciclib + Decitabine; first compound 0.253 µM): 0.264
relative viability (Seliciclib + Decitabine; first compound 0.8 µM): 0.277
relative viability (Seliciclib + Decitabine; first compound 2.53 µM): 0.243
relative viability (Seliciclib + Decitabine; first compound 8 µM): 0.255

NCI-H1944
relative viability (Seliciclib + Lapatinib; first compound 0.08 µM): 0.842
relative viability (Seliciclib + Lapatinib; first compound 0.253 µM): 0.788
relative viability (Seliciclib + Lapatinib; first compound 0.8 µM): 0.859
relative viability (Seliciclib + Lapatinib; first compound 2.53 µM): 0.619
relative viability (Seliciclib + Lapatinib; first compound 8 µM): 0.449
relative viability (Seliciclib + Crizotinib; first compound 0.08 µM): 1.09
relative viability (Seliciclib + Crizotinib; first compound 0.253 µM): 1.16
relative viability (Seliciclib + Crizotinib; first compound 0.8 µM): 0.931
relative viability (Seliciclib + Crizotinib; first compound 2.53 µM): 0.996
relative viability (Seliciclib + Crizotinib; first compound 8 µM): 0.714
relative viability (Seliciclib + Tozasertib; first compound 0.08 µM): 0.263
relative viability (Seliciclib + Tozasertib; first compound 0.253 µM): 0.242
relative viability (Seliciclib + Tozasertib; first compound 0.8 µM): 0.235
relative viability (Seliciclib + Tozasertib; first compound 2.53 µM): 0.225
relative viability (Seliciclib + Tozasertib; first compound 8 µM): 0.234
relative viability (Seliciclib + Decitabine; first compound 0.08 µM): 0.471
relative viability (Seliciclib + Decitabine; first compound 0.253 µM): 0.43
relative viability (Seliciclib + Decitabine; first compound 0.8 µM): 0.467
relative viability (Seliciclib + Decitabine; first compound 2.53 µM): 0.519
relative viability (Seliciclib + Decitabine; first compound 8 µM): 0.405

NCI-H1975
relative viability (Seliciclib + Lapatinib; first compound 0.08 µM): 0.867
relative viability (Seliciclib + Lapatinib; first compound 0.253 µM): 0.834
relative viability (Seliciclib + Lapatinib; first compound 0.8 µM): 0.868
relative viability (Seliciclib + Lapatinib; first compound 2.53 µM): 0.759
relative viability (Seliciclib + Lapatinib; first compound 8 µM): 0.716
relative viability (Seliciclib + Crizotinib; first compound 0.08 µM): 0.966
relative viability (Seliciclib + Crizotinib; first compound 0.253 µM): 0.984
relative viability (Seliciclib + Crizotinib; first compound 0.8 µM): 0.917
relative viability (Seliciclib + Crizotinib; first compound 2.53 µM): 0.924
relative viability (Seliciclib + Crizotinib; first compound 8 µM): 0.662
relative viability (Seliciclib + Tozasertib; first compound 0.08 µM): 0.777
relative viability (Seliciclib + Tozasertib; first compound 0.253 µM): 0.769
relative viability (Seliciclib + Tozasertib; first compound 0.8 µM): 0.704
relative viability (Seliciclib + Tozasertib; first compound 2.53 µM): 0.681
relative viability (Seliciclib + Tozasertib; first compound 8 µM): 0.296
relative viability (Seliciclib + Decitabine; first compound 0.08 µM): 0.394
relative viability (Seliciclib + Decitabine; first compound 0.253 µM): 0.349
relative viability (Seliciclib + Decitabine; first compound 0.8 µM): 0.365
relative viability (Seliciclib + Decitabine; first compound 2.53 µM): 0.645
relative viability (Seliciclib + Decitabine; first compound 8 µM): 0.332

NCI-H1993
relative viability (Seliciclib + Lapatinib; first compound 0.08 µM): 0.845
relative viability (Seliciclib + Lapatinib; first compound 0.253 µM): 0.848
relative viability (Seliciclib + Lapatinib; first compound 0.8 µM): 0.838
relative viability (Seliciclib + Lapatinib; first compound 2.53 µM): 0.773
relative viability (Seliciclib + Lapatinib; first compound 8 µM): 0.797
relative viability (Seliciclib + Crizotinib; first compound 0.08 µM): 0.769
relative viability (Seliciclib + Crizotinib; first compound 0.253 µM): 0.803
relative viability (Seliciclib + Crizotinib; first compound 0.8 µM): 0.768
relative viability (Seliciclib + Crizotinib; first compound 2.53 µM): 0.849
relative viability (Seliciclib + Crizotinib; first compound 8 µM): 0.727
relative viability (Seliciclib + Tozasertib; first compound 0.08 µM): 0.546
relative viability (Seliciclib + Tozasertib; first compound 0.253 µM): 0.578
relative viability (Seliciclib + Tozasertib; first compound 0.8 µM): 0.596
relative viability (Seliciclib + Tozasertib; first compound 2.53 µM): 0.541
relative viability (Seliciclib + Tozasertib; first compound 8 µM): 0.508
relative viability (Seliciclib + Decitabine; first compound 0.08 µM): 0.62
relative viability (Seliciclib + Decitabine; first compound 0.253 µM): 0.549
relative viability (Seliciclib + Decitabine; first compound 0.8 µM): 0.632
relative viability (Seliciclib + Decitabine; first compound 2.53 µM): 0.54
relative viability (Seliciclib + Decitabine; first compound 8 µM): 0.441

NCI-H2009
relative viability (Seliciclib + Lapatinib; first compound 0.08 µM): 0.944
relative viability (Seliciclib + Lapatinib; first compound 0.253 µM): 1.04
relative viability (Seliciclib + Lapatinib; first compound 0.8 µM): 0.889
relative viability (Seliciclib + Lapatinib; first compound 2.53 µM): 0.772
relative viability (Seliciclib + Lapatinib; first compound 8 µM): 0.721
relative viability (Seliciclib + Crizotinib; first compound 0.08 µM): 1.04
relative viability (Seliciclib + Crizotinib; first compound 0.253 µM): 0.963
relative viability (Seliciclib + Crizotinib; first compound 0.8 µM): 1.06
relative viability (Seliciclib + Crizotinib; first compound 2.53 µM): 0.987
relative viability (Seliciclib + Crizotinib; first compound 8 µM): 0.989
relative viability (Seliciclib + Tozasertib; first compound 0.08 µM): 0.767
relative viability (Seliciclib + Tozasertib; first compound 0.253 µM): 0.742
relative viability (Seliciclib + Tozasertib; first compound 0.8 µM): 0.809
relative viability (Seliciclib + Tozasertib; first compound 2.53 µM): 0.69
relative viability (Seliciclib + Tozasertib; first compound 8 µM): 0.635
relative viability (Seliciclib + Decitabine; first compound 0.08 µM): 0.378
relative viability (Seliciclib + Decitabine; first compound 0.253 µM): 0.42
relative viability (Seliciclib + Decitabine; first compound 0.8 µM): 0.402
relative viability (Seliciclib + Decitabine; first compound 2.53 µM): 0.371
relative viability (Seliciclib + Decitabine; first compound 8 µM): 0.415

NCI-H2023
relative viability (Seliciclib + Lapatinib; first compound 0.08 µM): 0.932
relative viability (Seliciclib + Lapatinib; first compound 0.253 µM): 0.991
relative viability (Seliciclib + Lapatinib; first compound 0.8 µM): 0.732
relative viability (Seliciclib + Lapatinib; first compound 2.53 µM): 0.406
relative viability (Seliciclib + Lapatinib; first compound 8 µM): 0.451
relative viability (Seliciclib + Crizotinib; first compound 0.08 µM): 0.554
relative viability (Seliciclib + Crizotinib; first compound 0.253 µM): 0.578
relative viability (Seliciclib + Crizotinib; first compound 0.8 µM): 0.682
relative viability (Seliciclib + Crizotinib; first compound 2.53 µM): 0.595
relative viability (Seliciclib + Crizotinib; first compound 8 µM): 0.555
relative viability (Seliciclib + Tozasertib; first compound 0.08 µM): 0.393
relative viability (Seliciclib + Tozasertib; first compound 0.253 µM): 0.357
relative viability (Seliciclib + Tozasertib; first compound 0.8 µM): 0.337
relative viability (Seliciclib + Tozasertib; first compound 2.53 µM): 0.36
relative viability (Seliciclib + Tozasertib; first compound 8 µM): 0.22
relative viability (Seliciclib + Decitabine; first compound 0.08 µM): 0.217
relative viability (Seliciclib + Decitabine; first compound 0.253 µM): 0.216
relative viability (Seliciclib + Decitabine; first compound 0.8 µM): 0.203
relative viability (Seliciclib + Decitabine; first compound 2.53 µM): 0.267
relative viability (Seliciclib + Decitabine; first compound 8 µM): 0.248

NCI-H2085
relative viability (Seliciclib + Lapatinib; first compound 0.08 µM): 0.739
relative viability (Seliciclib + Lapatinib; first compound 0.253 µM): 0.793
relative viability (Seliciclib + Lapatinib; first compound 0.8 µM): 0.667
relative viability (Seliciclib + Lapatinib; first compound 2.53 µM): 0.635
relative viability (Seliciclib + Lapatinib; first compound 8 µM): 0.497
relative viability (Seliciclib + Crizotinib; first compound 0.08 µM): 0.866
relative viability (Seliciclib + Crizotinib; first compound 0.253 µM): 0.767
relative viability (Seliciclib + Crizotinib; first compound 0.8 µM): 0.9
relative viability (Seliciclib + Crizotinib; first compound 2.53 µM): 0.862
relative viability (Seliciclib + Crizotinib; first compound 8 µM): 0.706
relative viability (Seliciclib + Tozasertib; first compound 0.08 µM): 0.807
relative viability (Seliciclib + Tozasertib; first compound 0.253 µM): 0.96
relative viability (Seliciclib + Tozasertib; first compound 0.8 µM): 0.737
relative viability (Seliciclib + Tozasertib; first compound 2.53 µM): 0.619
relative viability (Seliciclib + Tozasertib; first compound 8 µM): 0.664
relative viability (Seliciclib + Decitabine; first compound 0.08 µM): 0.518
relative viability (Seliciclib + Decitabine; first compound 0.253 µM): 0.501
relative viability (Seliciclib + Decitabine; first compound 0.8 µM): 0.563
relative viability (Seliciclib + Decitabine; first compound 2.53 µM): 0.49
relative viability (Seliciclib + Decitabine; first compound 8 µM): 0.483
